# System: NCI-H358 cells
# Assay: Inhibitory effect on proliferation of NCI-H358 cells (CellTiter-Glo, 72 h)
# Format: cell-based, human
# Conditions: not given
# Excerpt: Inhibitory effect of compounds on the proliferation of […] cells • 1. Experimental principle: NCI-H358 cell is human non-small cell lung cancer cell line expressing KRAS G12C. […] Test materials: NCI-H358 cells were purchased from ATCC; CellTiter-GloR was purchased from Promega (item: G7571); RPMI-1640 was purchased from ATCC (item: 30-2001): fetal bovine serum (FBS) was purchased from EXCELL (item: FND500); Penicillin-streptomycin was purchased from Gibco (item: 15140-122); 0.25% trypsin-ethylenediaminetetraacetic acid digestive juice (Trypsin-EDTA) was purchased from Gibco (item: 25200-072); dimethyl sulfoxide (DMSO) was purchased from Sigma (item: D2650); 96-well plate was purchased from Corning (item: 3610); Incubator was purchased from Thermo (model: 3111); Inverted microscope was purchased from Nikon (item: TS-100); Automatic cell counter was purchased from Life technologies (model: Countess II); Enzyme plate reader was purchased from PerkinElmer (model: Envision); The data processing software was GraphPad Prism 5.0. • 3. Test method:
# Cells in logarithmic growth phase were resuspended in growth medium (RPMI-1640+10% FBS) and diluted to target density ([…]). The above cell suspension was inoculated into 96-well plates at 100 μL per well; incubated overnight in a 37° C., 5% CO2 incubator. Medium was used as background control.
# The test compound was dissolved in DMSO to prepare a stock solution at a concentration of 10 mmol/L. The stock solution was first diluted to 2 mmol/L with DMSO, and then diluted in 3-fold gradient for a total of 10 concentrations. 3 μL of each concentration of the above solution was taken and diluted with 197 μL of growth medium. […] at 50 μL/well in the 96-well plate. The cells to which the test compound was added were incubated in a 37° C., 5% CO2 incubator for 72 hours. The 96-well plate was equilibrated at room temperature, and 40 μL CellTiter-Glo reagent was added to each well. Then, the plate was mixed on the vortex for 2 minutes, incubated at room temperature for 60 minutes. The luminescence value was read on an EnVision microplate reader, and the IC50 of the compound was calculated using the GraphPad Prism 5.0 software.
row,SMILES,IC50 [µM]
1,CN1CCC[C@H]1COc1nc2c(c(N3CCN(C(=O)/C=C/CF)[C@@H](CC#N)C3)n1)CN(C)C1(CCc3ccccc31)C2 (stereo partly shown) [Compound 14],1 to 10
2,C=CC(=O)N1CCN(c2nc(OC[C@@H]3CCCN3C)nc3c2CN(C)C2(CCc4ccccc42)C3)[C@@H](C)C1 (stereo partly shown) [Formate of 4],1 to 10
3,C=CC(=O)N1CCN(c2nc(OC[C@@H]3CCCN3C)nc3c2CN(C)C2(CCc4ccc(F)cc42)C3)C[C@@H]1CC#N (stereo partly shown) [Formate of 11],1 to 10
4,C=CC(=O)N1CCN(c2nc(OC[C@@H]3CCCN3C)nc3c2CN(C)C2(CCOc4ccccc42)C3)C[C@@H]1CC#N (stereo partly shown) [Formate of 22],0.1 to 1
5,C=CC(=O)N1CCN(c2nc(OC[C@@H]3CCCN3C)nc3c2CN(C)C2(CCc4c(OC)cccc42)C3)C[C@@H]1CC#N (stereo partly shown) [Formate of 24],0.1 to 1

# Next, values leading:
row,IC50 [µM],SMILES
1,0.1 to 1,C=CC(=O)N1CCN(c2nc(OC[C@@H]3CCCN3C)nc3c2CNC2(CCc4cccc(F)c42)C3)C[C@@H]1CC#N (stereo partly shown) [Formate of 10]
2,0.1 to 1,CN(C)C/C=C/C(=O)N1CCN(c2nc(OC[C@@H]3CCCN3C)nc3c2CN(C)C2(CCc4cccc(F)c42)C3)C[C@@H]1CC#N (stereo partly shown) [Formate of 15]
3,< 0.1,C=CC(=O)N1CCN(c2nc(OC[C@@H]3CCCN3C)nc3c2CN(C)C2(CCc4cccc(Cl)c42)C3)C[C@@H]1CC#N (stereo partly shown) [Formate of 18]
4,< 0.1,C=CC(=O)N1CCN(c2nc(OC[C@@H]3CCCN3C)nc3c2CN(C)C2(CCCc4ccccc42)C3)C[C@@H]1CC#N (stereo partly shown) [Formate of 20]
5,< 0.1,C=CC(=O)N1CCN(c2nc(OC[C@@]34CCCN3C[C@H](F)C4)nc3c2CN(C)C2(CCc4cccc(Cl)c42)C3)C[C@@H]1CC#N (stereo partly shown) [Formate of 34]

# Same assay, conditions: Homo sapiens
row,IC50 [µM],SMILES
1,1 to 10,C=CC(=O)N1CCN(c2nc(OCC3CCCN3C)nc3c2CN(C)C2(CCc4ccccc42)C3)CC1 (stereo not shown) [Compound 1]
2,0.1 to 1,C=CC(=O)N1CCN(c2nc(OC[C@@H]3CCCN3C)nc3c2CN(C)C2(CCc4ccc(Cl)cc42)C3)C[C@@H]1CC#N (stereo partly shown) [Compound 5]
3,< 0.1,C=C(F)C(=O)N1CCN(c2nc(OC[C@@]34CCCN3C[C@H](F)C4)nc3c2CN(C)C2(CCc4cccc(Cl)c42)C3)C[C@@H]1CC#N (stereo partly shown) [Compound 35]
